Results as given in US11952388B2, “Crystal form of tri-cycle compound and application thereof” (FUJIAN AKEYLINK BIOTECHNOLOGY CO., LTD., priority 2018, dated 2024).

Experiment: Pre-stability (solid stability) test of crystal form B, HPLC analysis
Type: physicochemical
Procedure: [table] Note: • X indicates testing items, including: XRPD, content and related substances, day 0 samples were stored at −20° C.; • ICH indicate the illumination condition that guides the placement of the samples, i.e., illumination (total illuminance=1.2×10^6 Lux·hr/near ultraviolet=200 w·hr/m^2, with the lid open). About 10 mg of the crystal form B of the compound represented by formula (I) was weighed and placed at the bottom of a 40 mL glass bottle, and spread into a thin layer. The bottleneck was wrapped with aluminum foil paper (except for illuminated samples), and some small holes were punctured on the aluminum foil paper to ensure that the samples can fully contact the ambient air. The illuminated sample was placed at the bottom of a 40 mL glass bottle, which was placed vertically in the illuminated box with the lid open; the control sample was placed at the bottom of glass vials, which was placed vertically with the lid open, and wrapped with tin foil to protect it from light. Under each condition, 2 aliquots of sample were weighed in parallel at each time point, and an additional appropriate amount of sample (not weighed) was taken for XRPD detection. The prepared samples were placed under various conditions shown in the following Table, and samples were analyzed respectively by HPLC after reaching the time points. 1.1 Preparation of Diluent and Mobile Phase • Diluent: Acetonitrile:Water (2:1) • Example: 1000 mL of acetonitrile and 500 mL of water were mixed evenly, ultrasonically degassed, and cooled to room temperature. • Mobile phase A: 0.1% trifluoroacetic acid aqueous solution • Example: 2.0 mL of trifluoroacetic acid was added to 2 L of water and mixed well, ultrasonically degassed, and cooled to room temperature. • Mobile phase B: 100% acetonitrile The crystal form B of compound represented by formula (I) was used as control. The crystal form B of compound represented by formula (I) was placed in a glass bottle, then 5 mL of diluent was added into the bottle to a concentration of 1 mg/mL, and the solution was mix well ultrasonically. And then the mixture was diluted 5 times to obtain the control sample solution STD1. STD1 was diluted 1, 2, 4, 20 and 200 times to prepare a 1% control solution. Diluent was added to each test sample to a concentration of 10 mL, then the samples were ultrasonically dissolved. HPLC test was performed after cooling to room temperature. Meanwhile, the sample solution was diluted 5 times and mixed well, and then tested by HPLC. [table]

[1] = Illumination of Control (light-proof)

## Cc1cc2n(c1)S(=O)(=O)c1ccc(C(=O)NCC[C@H]3COCCO3)cc1NC2=O
40° C., 75% humidity, 1 month
  Assay (content of the sample): 100.6%
  TRS (sum of impurities): 1.20%
  impurity at relative retention time 0.87: 0.34%
  impurity at relative retention time 1.07: 0.07%
  impurity at relative retention time 1.12: 0.65%
  impurity at relative retention time 1.14: 0.13%
40° C., 75% humidity, 10 days
  Assay (content of the sample): 100.7%
  TRS (sum of impurities): 1.19%
  impurity at relative retention time 0.87: 0.34%
  impurity at relative retention time 1.07: 0.06%
  impurity at relative retention time 1.12: 0.65%
  impurity at relative retention time 1.14: 0.13%
60° C., 75% humidity, 1 month
  Assay (content of the sample): 100.3%
  TRS (sum of impurities): 1.21%
  impurity at relative retention time 0.87: 0.35%
  impurity at relative retention time 1.07: 0.07%
  impurity at relative retention time 1.12: 0.65%
  impurity at relative retention time 1.14: 0.13%
60° C., 75% humidity, 10 days
  Assay (content of the sample): 101.4%
  TRS (sum of impurities): 1.20%
  impurity at relative retention time 0.87: 0.35%
  impurity at relative retention time 1.07: 0.07%
  impurity at relative retention time 1.12: 0.65%
  impurity at relative retention time 1.14: 0.13%
60° C., 5 days
  Assay (content of the sample): 100.1%
  TRS (sum of impurities): 1.19%
  impurity at relative retention time 0.87: 0.35%
  impurity at relative retention time 1.07: 0.07%
  impurity at relative retention time 1.12: 0.65%
  impurity at relative retention time 1.14: 0.13%
60° C., 10 days
  Assay (content of the sample): 100.1%
  TRS (sum of impurities): 1.21%
  impurity at relative retention time 0.87: 0.36%
  impurity at relative retention time 1.07: 0.07%
  impurity at relative retention time 1.12: 0.65%
  impurity at relative retention time 1.14: 0.13%
92.5% humidity, 5 days
  Assay (content of the sample): 100.0%
  TRS (sum of impurities): 1.21%
  impurity at relative retention time 0.87: 0.36%
  impurity at relative retention time 1.07: 0.07%
  impurity at relative retention time 1.12: 0.65%
  impurity at relative retention time 1.14: 0.13%
92.5% humidity, 10 days
  Assay (content of the sample): 100.7%
  TRS (sum of impurities): 1.20%
  impurity at relative retention time 0.87: 0.35%
  impurity at relative retention time 1.07: 0.06%
  impurity at relative retention time 1.12: 0.65%
  impurity at relative retention time 1.14: 0.13%
Day 0
  Assay (content of the sample): 100.5%
  TRS (sum of impurities): 1.20%
  impurity at relative retention time 0.87: 0.35%
  impurity at relative retention time 1.07: 0.06%
  impurity at relative retention time 1.12: 0.65%
  impurity at relative retention time 1.14: 0.14%
Illumination (1 ICH, lid open)
  Assay (content of the sample): 83.5%
  TRS (sum of impurities): 9.50%
  impurity at relative retention time 0.16: 0.07%
  impurity at relative retention time 0.19: 0.32%
  impurity at relative retention time 0.24: 0.12%
  impurity at relative retention time 0.26: 0.12%
  impurity at relative retention time 0.31: 0.12%
  impurity at relative retention time 0.36: 0.19%
  impurity at relative retention time 0.38: 0.08%
  impurity at relative retention time 0.60: 0.28%
  impurity at relative retention time 0.62: 0.12%
  impurity at relative retention time 0.70: 0.10%
  impurity at relative retention time 0.78: 0.16%
  impurity at relative retention time 0.79: 0.24%
  impurity at relative retention time 0.82: 2.26%
  impurity at relative retention time 0.87: 4.49%
  impurity at relative retention time 0.89: 0.07%
  impurity at relative retention time 0.90: 0.07%
  impurity at relative retention time 1.07: <0.05%
  impurity at relative retention time 1.12: 0.52%
  impurity at relative retention time 1.14: 0.12%
  impurity at relative retention time 1.42: 0.06%
[1]
  Assay (content of the sample): 100.3%
  TRS (sum of impurities): 1.18%
  impurity at relative retention time 0.87: 0.34%
  impurity at relative retention time 1.07: 0.07%
  impurity at relative retention time 1.12: 0.64%
  impurity at relative retention time 1.14: 0.13%
High temperature and high humidity conditions
  solid stability (conclusion in words): stable under high temperature and high humidity conditions
